Data taken from patent US10010545B1, “Antibiotic compositions and methods of use” (University of South Florida, priority 2013, dated 2018).

Tests used:
Staphylococcus aureus = assay: Growth testing against ESKAPE pathogens: Staphylococcus aureus; assay type: cell-based; design: key to Activity against Staphylococcus aureus (growth observed): Growth; X: No Growth
Description: (§1) Six analogs (FIG. 2) of the ciprofloxacin-N thiolated β-lactam were successfully synthesized. All these compounds were then tested against ESKAPE pathogens for bioactivity. The ESKAPE pathogens are a collection of six deadly superbugs, Enterococcus faecium, Staphylococcus aureus, Klebsiella pneumoniae, Acinetobacter baumannii, Pseudomonas aeruginosa, and Enterobacter species. […] G denotes growth and X denotes no growth in the tables.

Acinetobacter baumannii = assay: Growth testing against ESKAPE pathogens: Acinetobacter baumannii; assay type: cell-based; design: key: Growth; X: No Growth
Description: as §1

Klebesiella pneumonia = assay: Growth testing against ESKAPE pathogens: Klebesiella pneumonia; assay type: cell-based, Klebsiella pneumoniae; design: key: Growth; X: No Growth
Description: as §1

Pseudomonas aeruginosa = assay: Growth testing against ESKAPE pathogens: Pseudomonas aeruginosa; assay type: cell-based; design: key: Growth; X: No Growth
Description: as §1

Enterococcus faecium = assay: Growth testing against ESKAPE pathogens: Enterococcus faecium; assay type: cell-based; design: key: Growth; X: No Growth
Description: as §1

CCCCCC(=O)N1CCN(c2cc3c(cc2F)c(=O)c(C(=O)OC2C(=O)N(SC)C2c2ccccc2)cn3C2CC2)CC1 (stereo not drawn) [Lactam 126]
G: Activity against Staphylococcus aureus (growth observed) (Staphylococcus aureus; 1 μg/ml) | Activity against Staphylococcus aureus (growth observed) (Staphylococcus aureus; 2 μg/ml) | Activity against Staphylococcus aureus (growth observed) (Staphylococcus aureus; 3 μg/ml) | Activity against Staphylococcus aureus (growth observed) (Staphylococcus aureus; 4 μg/ml) | Activity against Staphylococcus aureus (growth observed) (Staphylococcus aureus; 5 μg/ml) | Activity against Staphylococcus aureus (growth observed) (Staphylococcus aureus; 6 μg/ml) | Activity against Staphylococcus aureus (growth observed) (Staphylococcus aureus; 7 μg/ml) | Activity against Staphylococcus aureus (growth observed) (Staphylococcus aureus; 8 μg/ml) | Activity against Staphylococcus aureus (growth observed) (Staphylococcus aureus; 9 μg/ml) | Activity against Staphylococcus aureus (growth observed) (Staphylococcus aureus; 10 μg/ml) | Activity against Staphylococcus aureus (growth observed) (Staphylococcus aureus; 25 μg/ml) | Activity against Acinetobacter baumannii (growth observed) (Acinetobacter baumannii; 1 μg/ml) | Activity against Acinetobacter baumannii (growth observed) (Acinetobacter baumannii; 2 μg/ml) | Activity against Acinetobacter baumannii (growth observed) (Acinetobacter baumannii; 3 μg/ml) | Activity against Acinetobacter baumannii (growth observed) (Acinetobacter baumannii; 4 μg/ml) | Activity against Acinetobacter baumannii (growth observed) (Acinetobacter baumannii; 5 μg/ml) | Activity against Acinetobacter baumannii (growth observed) (Acinetobacter baumannii; 6 μg/ml) | Activity against Acinetobacter baumannii (growth observed) (Acinetobacter baumannii; 7 μg/ml) | Activity against Acinetobacter baumannii (growth observed) (Acinetobacter baumannii; 8 μg/ml) | Activity against Acinetobacter baumannii (growth observed) (Acinetobacter baumannii; 9 μg/ml) | Activity against Acinetobacter baumannii (growth observed) (Acinetobacter baumannii; 10 μg/ml) | Activity against Acinetobacter baumannii (growth observed) (Acinetobacter baumannii; 25 μg/ml) | Activity against Klebesiella pneumonia (growth observed) (Klebesiella pneumonia; 1 μg/ml) | Activity against Klebesiella pneumonia (growth observed) (Klebesiella pneumonia; 2 μg/ml) | Activity against Klebesiella pneumonia (growth observed) (Klebesiella pneumonia; 3 μg/ml) | Activity against Klebesiella pneumonia (growth observed) (Klebesiella pneumonia; 4 μg/ml) | Activity against Klebesiella pneumonia (growth observed) (Klebesiella pneumonia; 5 μg/ml) | Activity against Klebesiella pneumonia (growth observed) (Klebesiella pneumonia; 6 μg/ml) | Activity against Klebesiella pneumonia (growth observed) (Klebesiella pneumonia; 7 μg/ml) | Activity against Klebesiella pneumonia (growth observed) (Klebesiella pneumonia; 8 μg/ml) | Activity against Klebesiella pneumonia (growth observed) (Klebesiella pneumonia; 9 μg/ml) | Activity against Klebesiella pneumonia (growth observed) (Klebesiella pneumonia; 10 μg/ml) | Activity against Klebesiella pneumonia (growth observed) (Klebesiella pneumonia; 25 μg/ml) | Activity against Pseudomonas aeruginosa (growth observed) (Pseudomonas aeruginosa; 1 μg/ml) | Activity against Pseudomonas aeruginosa (growth observed) (Pseudomonas aeruginosa; 2 μg/ml) | Activity against Pseudomonas aeruginosa (growth observed) (Pseudomonas aeruginosa; 3 μg/ml) | Activity against Pseudomonas aeruginosa (growth observed) (Pseudomonas aeruginosa; 4 μg/ml) | Activity against Pseudomonas aeruginosa (growth observed) (Pseudomonas aeruginosa; 5 μg/ml) | Activity against Pseudomonas aeruginosa (growth observed) (Pseudomonas aeruginosa; 6 μg/ml) | Activity against Pseudomonas aeruginosa (growth observed) (Pseudomonas aeruginosa; 7 μg/ml) | Activity against Pseudomonas aeruginosa (growth observed) (Pseudomonas aeruginosa; 8 μg/ml) | Activity against Pseudomonas aeruginosa (growth observed) (Pseudomonas aeruginosa; 9 μg/ml) | Activity against Pseudomonas aeruginosa (growth observed) (Pseudomonas aeruginosa; 10 μg/ml) | Activity against Pseudomonas aeruginosa (growth observed) (Pseudomonas aeruginosa; 25 μg/ml) | Activity against Enterococcus faecium (growth observed) (Enterococcus faecium; 1 μg/ml) | Activity against Enterococcus faecium (growth observed) (Enterococcus faecium; 2 μg/ml) | Activity against Enterococcus faecium (growth observed) (Enterococcus faecium; 3 μg/ml) | Activity against Enterococcus faecium (growth observed) (Enterococcus faecium; 4 μg/ml) | Activity against Enterococcus faecium (growth observed) (Enterococcus faecium; 5 μg/ml) | Activity against Enterococcus faecium (growth observed) (Enterococcus faecium; 6 μg/ml) | Activity against Enterococcus faecium (growth observed) (Enterococcus faecium; 7 μg/ml) | Activity against Enterococcus faecium (growth observed) (Enterococcus faecium; 8 μg/ml) | Activity against Enterococcus faecium (growth observed) (Enterococcus faecium; 9 μg/ml) | Activity against Enterococcus faecium (growth observed) (Enterococcus faecium; 10 μg/ml) | Activity against Enterococcus faecium (growth observed) (Enterococcus faecium; 25 μg/ml)

CCCCCCC(=O)N1CCN(c2cc3c(cc2F)c(=O)c(C(=O)OC2C(=O)N(SC)C2c2ccccc2)cn3C2CC2)CC1 (stereo not drawn) [Lactam 127]
G: Activity against Staphylococcus aureus (growth observed) (Staphylococcus aureus; 1 μg/ml) | Activity against Staphylococcus aureus (growth observed) (Staphylococcus aureus; 2 μg/ml) | Activity against Staphylococcus aureus (growth observed) (Staphylococcus aureus; 3 μg/ml) | Activity against Staphylococcus aureus (growth observed) (Staphylococcus aureus; 4 μg/ml) | Activity against Staphylococcus aureus (growth observed) (Staphylococcus aureus; 5 μg/ml) | Activity against Staphylococcus aureus (growth observed) (Staphylococcus aureus; 6 μg/ml) | Activity against Staphylococcus aureus (growth observed) (Staphylococcus aureus; 7 μg/ml) | Activity against Staphylococcus aureus (growth observed) (Staphylococcus aureus; 8 μg/ml) | Activity against Staphylococcus aureus (growth observed) (Staphylococcus aureus; 9 μg/ml) | Activity against Staphylococcus aureus (growth observed) (Staphylococcus aureus; 10 μg/ml) | Activity against Staphylococcus aureus (growth observed) (Staphylococcus aureus; 25 μg/ml) | Activity against Acinetobacter baumannii (growth observed) (Acinetobacter baumannii; 1 μg/ml) | Activity against Acinetobacter baumannii (growth observed) (Acinetobacter baumannii; 2 μg/ml) | Activity against Acinetobacter baumannii (growth observed) (Acinetobacter baumannii; 3 μg/ml) | Activity against Acinetobacter baumannii (growth observed) (Acinetobacter baumannii; 4 μg/ml) | Activity against Acinetobacter baumannii (growth observed) (Acinetobacter baumannii; 5 μg/ml) | Activity against Acinetobacter baumannii (growth observed) (Acinetobacter baumannii; 6 μg/ml) | Activity against Acinetobacter baumannii (growth observed) (Acinetobacter baumannii; 7 μg/ml) | Activity against Acinetobacter baumannii (growth observed) (Acinetobacter baumannii; 8 μg/ml) | Activity against Acinetobacter baumannii (growth observed) (Acinetobacter baumannii; 9 μg/ml) | Activity against Acinetobacter baumannii (growth observed) (Acinetobacter baumannii; 10 μg/ml) | Activity against Acinetobacter baumannii (growth observed) (Acinetobacter baumannii; 25 μg/ml) | Activity against Klebesiella pneumonia (growth observed) (Klebesiella pneumonia; 1 μg/ml) | Activity against Klebesiella pneumonia (growth observed) (Klebesiella pneumonia; 2 μg/ml) | Activity against Klebesiella pneumonia (growth observed) (Klebesiella pneumonia; 3 μg/ml) | Activity against Klebesiella pneumonia (growth observed) (Klebesiella pneumonia; 4 μg/ml) | Activity against Klebesiella pneumonia (growth observed) (Klebesiella pneumonia; 5 μg/ml) | Activity against Klebesiella pneumonia (growth observed) (Klebesiella pneumonia; 6 μg/ml) | Activity against Klebesiella pneumonia (growth observed) (Klebesiella pneumonia; 7 μg/ml) | Activity against Klebesiella pneumonia (growth observed) (Klebesiella pneumonia; 8 μg/ml) | Activity against Klebesiella pneumonia (growth observed) (Klebesiella pneumonia; 9 μg/ml) | Activity against Klebesiella pneumonia (growth observed) (Klebesiella pneumonia; 10 μg/ml) | Activity against Klebesiella pneumonia (growth observed) (Klebesiella pneumonia; 25 μg/ml) | Activity against Pseudomonas aeruginosa (growth observed) (Pseudomonas aeruginosa; 1 μg/ml) | Activity against Pseudomonas aeruginosa (growth observed) (Pseudomonas aeruginosa; 2 μg/ml) | Activity against Pseudomonas aeruginosa (growth observed) (Pseudomonas aeruginosa; 3 μg/ml) | Activity against Pseudomonas aeruginosa (growth observed) (Pseudomonas aeruginosa; 4 μg/ml) | Activity against Pseudomonas aeruginosa (growth observed) (Pseudomonas aeruginosa; 5 μg/ml) | Activity against Pseudomonas aeruginosa (growth observed) (Pseudomonas aeruginosa; 6 μg/ml) | Activity against Pseudomonas aeruginosa (growth observed) (Pseudomonas aeruginosa; 7 μg/ml) | Activity against Pseudomonas aeruginosa (growth observed) (Pseudomonas aeruginosa; 8 μg/ml) | Activity against Pseudomonas aeruginosa (growth observed) (Pseudomonas aeruginosa; 9 μg/ml) | Activity against Pseudomonas aeruginosa (growth observed) (Pseudomonas aeruginosa; 10 μg/ml) | Activity against Pseudomonas aeruginosa (growth observed) (Pseudomonas aeruginosa; 25 μg/ml) | Activity against Enterococcus faecium (growth observed) (Enterococcus faecium; 1 μg/ml) | Activity against Enterococcus faecium (growth observed) (Enterococcus faecium; 2 μg/ml) | Activity against Enterococcus faecium (growth observed) (Enterococcus faecium; 3 μg/ml) | Activity against Enterococcus faecium (growth observed) (Enterococcus faecium; 4 μg/ml) | Activity against Enterococcus faecium (growth observed) (Enterococcus faecium; 5 μg/ml) | Activity against Enterococcus faecium (growth observed) (Enterococcus faecium; 6 μg/ml) | Activity against Enterococcus faecium (growth observed) (Enterococcus faecium; 7 μg/ml) | Activity against Enterococcus faecium (growth observed) (Enterococcus faecium; 8 μg/ml) | Activity against Enterococcus faecium (growth observed) (Enterococcus faecium; 9 μg/ml) | Activity against Enterococcus faecium (growth observed) (Enterococcus faecium; 10 μg/ml) | Activity against Enterococcus faecium (growth observed) (Enterococcus faecium; 25 μg/ml)

CCCCCC(=O)N1CCN(c2cc3c(cc2F)c(=O)c(C(=O)OC2C(=O)N(c4ccc(OC)cc4)C2c2ccccc2Cl)cn3C2CC2)CC1 (stereo not drawn) [Lactam 128]
G: Activity against Staphylococcus aureus (growth observed) (Staphylococcus aureus; 1 μg/ml) | Activity against Staphylococcus aureus (growth observed) (Staphylococcus aureus; 2 μg/ml) | Activity against Staphylococcus aureus (growth observed) (Staphylococcus aureus; 3 μg/ml) | Activity against Staphylococcus aureus (growth observed) (Staphylococcus aureus; 4 μg/ml) | Activity against Staphylococcus aureus (growth observed) (Staphylococcus aureus; 5 μg/ml) | Activity against Staphylococcus aureus (growth observed) (Staphylococcus aureus; 6 μg/ml) | Activity against Staphylococcus aureus (growth observed) (Staphylococcus aureus; 7 μg/ml) | Activity against Staphylococcus aureus (growth observed) (Staphylococcus aureus; 8 μg/ml) | Activity against Staphylococcus aureus (growth observed) (Staphylococcus aureus; 9 μg/ml) | Activity against Staphylococcus aureus (growth observed) (Staphylococcus aureus; 10 μg/ml) | Activity against Staphylococcus aureus (growth observed) (Staphylococcus aureus; 25 μg/ml) | Activity against Acinetobacter baumannii (growth observed) (Acinetobacter baumannii; 1 μg/ml) | Activity against Acinetobacter baumannii (growth observed) (Acinetobacter baumannii; 2 μg/ml) | Activity against Acinetobacter baumannii (growth observed) (Acinetobacter baumannii; 3 μg/ml) | Activity against Acinetobacter baumannii (growth observed) (Acinetobacter baumannii; 4 μg/ml) | Activity against Acinetobacter baumannii (growth observed) (Acinetobacter baumannii; 5 μg/ml) | Activity against Acinetobacter baumannii (growth observed) (Acinetobacter baumannii; 6 μg/ml) | Activity against Acinetobacter baumannii (growth observed) (Acinetobacter baumannii; 7 μg/ml) | Activity against Acinetobacter baumannii (growth observed) (Acinetobacter baumannii; 8 μg/ml) | Activity against Acinetobacter baumannii (growth observed) (Acinetobacter baumannii; 9 μg/ml) | Activity against Acinetobacter baumannii (growth observed) (Acinetobacter baumannii; 10 μg/ml) | Activity against Acinetobacter baumannii (growth observed) (Acinetobacter baumannii; 25 μg/ml) | Activity against Klebesiella pneumonia (growth observed) (Klebesiella pneumonia; 1 μg/ml) | Activity against Klebesiella pneumonia (growth observed) (Klebesiella pneumonia; 2 μg/ml) | Activity against Klebesiella pneumonia (growth observed) (Klebesiella pneumonia; 3 μg/ml) | Activity against Klebesiella pneumonia (growth observed) (Klebesiella pneumonia; 4 μg/ml) | Activity against Klebesiella pneumonia (growth observed) (Klebesiella pneumonia; 5 μg/ml) | Activity against Klebesiella pneumonia (growth observed) (Klebesiella pneumonia; 6 μg/ml) | Activity against Klebesiella pneumonia (growth observed) (Klebesiella pneumonia; 7 μg/ml) | Activity against Klebesiella pneumonia (growth observed) (Klebesiella pneumonia; 8 μg/ml) | Activity against Klebesiella pneumonia (growth observed) (Klebesiella pneumonia; 9 μg/ml) | Activity against Klebesiella pneumonia (growth observed) (Klebesiella pneumonia; 10 μg/ml) | Activity against Klebesiella pneumonia (growth observed) (Klebesiella pneumonia; 25 μg/ml) | Activity against Pseudomonas aeruginosa (growth observed) (Pseudomonas aeruginosa; 1 μg/ml) | Activity against Pseudomonas aeruginosa (growth observed) (Pseudomonas aeruginosa; 2 μg/ml) | Activity against Pseudomonas aeruginosa (growth observed) (Pseudomonas aeruginosa; 3 μg/ml) | Activity against Pseudomonas aeruginosa (growth observed) (Pseudomonas aeruginosa; 4 μg/ml) | Activity against Pseudomonas aeruginosa (growth observed) (Pseudomonas aeruginosa; 5 μg/ml) | Activity against Pseudomonas aeruginosa (growth observed) (Pseudomonas aeruginosa; 6 μg/ml) | Activity against Pseudomonas aeruginosa (growth observed) (Pseudomonas aeruginosa; 7 μg/ml) | Activity against Pseudomonas aeruginosa (growth observed) (Pseudomonas aeruginosa; 8 μg/ml) | Activity against Pseudomonas aeruginosa (growth observed) (Pseudomonas aeruginosa; 9 μg/ml) | Activity against Pseudomonas aeruginosa (growth observed) (Pseudomonas aeruginosa; 10 μg/ml) | Activity against Pseudomonas aeruginosa (growth observed) (Pseudomonas aeruginosa; 25 μg/ml) | Activity against Enterococcus faecium (growth observed) (Enterococcus faecium; 1 μg/ml) | Activity against Enterococcus faecium (growth observed) (Enterococcus faecium; 2 μg/ml) | Activity against Enterococcus faecium (growth observed) (Enterococcus faecium; 3 μg/ml) | Activity against Enterococcus faecium (growth observed) (Enterococcus faecium; 4 μg/ml) | Activity against Enterococcus faecium (growth observed) (Enterococcus faecium; 5 μg/ml) | Activity against Enterococcus faecium (growth observed) (Enterococcus faecium; 6 μg/ml) | Activity against Enterococcus faecium (growth observed) (Enterococcus faecium; 7 μg/ml) | Activity against Enterococcus faecium (growth observed) (Enterococcus faecium; 8 μg/ml) | Activity against Enterococcus faecium (growth observed) (Enterococcus faecium; 9 μg/ml) | Activity against Enterococcus faecium (growth observed) (Enterococcus faecium; 10 μg/ml) | Activity against Enterococcus faecium (growth observed) (Enterococcus faecium; 25 μg/ml)
